Experimental data reported in patent US20240269139A1, “COMPOUNDS FOR TARGETED PROTEIN DEGRADATION OF KINASES” (DANA-FARBER CANCER INSTITUTE, INC., priority 2020, published 2024).
Like-named read-outs stand apart in the source and are kept apart here.

Experiments:
Assay type in all cases: cell-based
[1] = molecular target: protein kinases (human kinome) (Homo sapiens, UniProt P30291); details: for logFC of WEE1: WEE1 P30291-1
[2] = molecular target: protein kinases (human kinome) (Homo sapiens, UniProt Q9H0K1); details: for logFC of SIK2: Accession Q9H0K1; for logFC SIK2 (Q9H0K1): direction of change down; for logFC SIK2: SIK2 (Q9H0K1), down
protein kinases (human kinome) (Homo sapiens, UniProt Q9H0K1), sequence (Q9H0K1 whole entry): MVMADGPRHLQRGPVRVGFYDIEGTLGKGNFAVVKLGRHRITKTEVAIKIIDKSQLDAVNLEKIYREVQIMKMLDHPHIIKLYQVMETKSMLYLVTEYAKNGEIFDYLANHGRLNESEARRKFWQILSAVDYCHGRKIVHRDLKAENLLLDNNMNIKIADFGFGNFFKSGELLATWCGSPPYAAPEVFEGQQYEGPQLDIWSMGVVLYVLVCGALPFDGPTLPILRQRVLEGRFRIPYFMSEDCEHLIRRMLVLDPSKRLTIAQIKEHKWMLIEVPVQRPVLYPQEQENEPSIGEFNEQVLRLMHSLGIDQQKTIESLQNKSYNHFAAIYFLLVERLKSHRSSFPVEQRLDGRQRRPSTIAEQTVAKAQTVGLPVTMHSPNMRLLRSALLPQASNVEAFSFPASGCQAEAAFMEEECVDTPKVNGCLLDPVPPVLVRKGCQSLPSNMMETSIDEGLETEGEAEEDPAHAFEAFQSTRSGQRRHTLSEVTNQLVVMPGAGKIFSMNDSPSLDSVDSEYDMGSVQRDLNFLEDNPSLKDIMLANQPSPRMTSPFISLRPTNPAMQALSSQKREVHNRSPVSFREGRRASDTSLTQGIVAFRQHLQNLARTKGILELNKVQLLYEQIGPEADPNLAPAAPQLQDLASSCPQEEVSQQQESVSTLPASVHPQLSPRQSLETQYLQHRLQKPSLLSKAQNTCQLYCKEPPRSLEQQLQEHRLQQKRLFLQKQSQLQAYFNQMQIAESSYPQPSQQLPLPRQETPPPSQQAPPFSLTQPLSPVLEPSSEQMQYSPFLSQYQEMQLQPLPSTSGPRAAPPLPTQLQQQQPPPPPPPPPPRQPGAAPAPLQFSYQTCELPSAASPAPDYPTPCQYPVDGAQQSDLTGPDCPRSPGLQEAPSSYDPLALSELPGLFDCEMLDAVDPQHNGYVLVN

[3] = test system: protein kinases (human kinome); details: for logFC of SRC: Accession P12931-2; for logFC LCK: accession P06239-3; for logFC LCK / logFC LCK (P06239-3): direction of change down; for logFC ABL1: ABL1 (P00519-2)

protein kinases (human kinome) (Homo sapiens, UniProt P30291), sequence (P30291 whole entry): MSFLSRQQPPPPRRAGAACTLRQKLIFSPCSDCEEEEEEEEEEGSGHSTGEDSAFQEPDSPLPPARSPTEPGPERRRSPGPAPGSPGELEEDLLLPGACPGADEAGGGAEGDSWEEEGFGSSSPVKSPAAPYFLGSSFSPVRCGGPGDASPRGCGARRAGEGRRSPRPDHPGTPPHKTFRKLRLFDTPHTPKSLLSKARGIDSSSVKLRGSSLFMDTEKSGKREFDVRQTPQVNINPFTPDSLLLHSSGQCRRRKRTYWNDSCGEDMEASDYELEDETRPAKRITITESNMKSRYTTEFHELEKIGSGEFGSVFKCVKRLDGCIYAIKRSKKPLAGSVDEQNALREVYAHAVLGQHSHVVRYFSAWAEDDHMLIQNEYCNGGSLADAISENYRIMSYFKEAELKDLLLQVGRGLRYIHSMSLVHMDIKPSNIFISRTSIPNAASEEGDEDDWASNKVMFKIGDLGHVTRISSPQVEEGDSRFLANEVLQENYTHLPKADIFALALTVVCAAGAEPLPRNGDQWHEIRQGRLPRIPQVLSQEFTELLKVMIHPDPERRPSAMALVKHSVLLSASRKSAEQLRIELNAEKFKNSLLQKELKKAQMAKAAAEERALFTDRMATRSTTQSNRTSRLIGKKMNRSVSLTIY

In the case of `Cc1cnc(Nc2ccc(N3CCN(CCCCCCC(=O)N[C@H](C(=O)N4C[C@H](O)C[C@H]4C(=O)N[C@@H](C)c4ccc(-c5scnc5C)cc4)C(C)(C)C)CC3)cc2)nc1Nc1cccc(S(=O)(=O)NC(C)(C)C)c1` [JWG.123], the “logFC of WEE1” value ([1]; experiment wp195) is reported as −1.368, the “logFC of WEE1 (P30291-1)” value ([1]; experiment wp195, direction of change down) is reported as −1.368 and the “logFC of SIK2” value ([2]; experiment wp195) is reported as −0.6143. For the same molecule, the “logFC SIK2 (Q9H0K1)” value ([2]; experiment wp195) was −0.6143.
In the case of `Cc1ccc(NC(=O)c2cccc(C(F)(F)F)c2)cc1N1Cc2cnc(Nc3ccc(N4CCN(CCCCCCOc5cccc6c5C(=O)N(C5CCC(=O)NC5=O)C6=O)CC4)nc3)nc2N(C)C1=O` (stereo not drawn) [DB0663], the “logFC of SIK2” value ([2]; experiment wp045) is reported as −0.4765, the “logFC SIK2” value ([2]; experiment wp045) is reported as −0.4765 and the “logFC of SRC” value ([3]; experiment wp045) is reported as −0.4247. The “logFC MAP3K20 (Q9NYL2-2)” value ([3]; Experiment wp046) was −0.8012, the “logFC LCK” value ([3]; experiment wp045) was −0.5823 and the logFC ([3]; SRC (P12931-2) protein abundance, degrader vs DMSO, down) was −0.4247. For the same molecule, the logFC ([3]; TNK2 (Q07912-3), experiment wp045, direction down) was −0.9271, the “logFC TNK2” value ([3]; TNK2 Q07912-3, experiment wp045) was −0.9271 and the “kinases the bifunctional compound degrades” value ([3]; as stated for the structure in the embodiments) was “CDK4, BLK, FER, LIMK2, GAK, CSK, SIK2, LCK, PTK2B, SRC, ABL2, MAPK14,a MAPK9, MAP4K2, MKNK2, MAP3K20, and TNK2”. For the same molecule, the “logFC MAP3K20 (Q9NYL2-2)” value ([3]; experiment wp045) was −0.8012, the “logFC LCK (P06239-3)” value ([3]; experiment wp045) was −0.5823 and the Kinase hits ([3]; kinases significantly downregulated vs DMSO (fold change cutoff −1.25, P-value<0.01), ≤8 h, 0.1-5 μM degrader, 7 cell lines) was “CDK4, BLK, FER, LIMK2, GAK, CSK, SIK2, LCK, PTK2B, SRC, ABL2, MAPK14.a MAPK9, MAP4K2, MKNK2, MAP3K20, TNK2”. The “Total no. kinase hits” value ([3]; number of degraded kinases per library compound) was 17.
With `Cn1c(=O)c(-c2c(Cl)cccc2Cl)cc2cnc(Nc3ccc(OCCNC(=O)CCCCCCNC(=O)COc4cccc5c4C(=O)N(C4CCC(=O)NC4=O)C5=O)cc3)nc21` (stereo not drawn) [SB1.G.192.1] the “logFC of WEE1” value ([1]; experiment wp081) was −1.764, the “logFC of WEE1” value ([1]; experiment wp131) was −1.647 and the “logFC WEE1 (P30291-1)” value ([1]; experiment wp071) was −2.367. For the same molecule, the “logFC WEE1 (P30291-1)” value ([1]; experiment wp081) was −1.764, the “logFC WEE1 (P30291-1)” value ([1]; experiment wp131) was −1.647 and the “logFC of SIK2” value ([2]; experiment wp071) was −1.036. The “logFC of SIK2” value ([2]; experiment wp081) was −1.196, the “logFC of SIK2” value ([2]; experiment wp131) was −0.9342 and the “logFC SIK2” value ([2]; experiment wp071) was −1.036. The “logFC SIK2 (Q9H0K1)” value ([2]; experiment wp081) was −1.196, the “logFC SIK2 (Q9H0K1)” value ([2]; experiment wp131) was −0.9342 and the “logFC ABL1” value ([3]; experiment wp071) was −1.417. The “logFC ABL1” value ([3]; experiment wp081) was −1.189, the “logFC FYN” value ([3]; Accession P06241-2, experiment wp071) was −1.595 and the “logFC FYN” value ([3]; Accession P06241-2, experiment wp081) was −0.9994. The “logFC FYN” value ([3]; Accession P06241-2, experiment wp131) was −0.9918, the “logFC of SRC” value ([3]; experiment wp071) was −2.578 and the “logFC of SRC” value ([3]; experiment wp081) was −2.113. The “logFC of SRC” value ([3]; experiment wp131) was −2.127, the “logFC TNK2 (Q07912-3)” value ([3]; Experiment wp071, direction down) was −1.728 and the “logFC TNK2 (Q07912-3)” value ([3]; Experiment wp081, direction down) was −0.9024. For the same molecule, the “logFC FYN” value ([3]; FYN P06241-2, experiment wp071) was −1.595, the “logFC FYN” value ([3]; FYN P06241-2, experiment wp081) was −0.9994 and the “logFC FYN” value ([3]; FYN P06241-2, experiment wp131) was −0.9918. For the same molecule, the “logFC LCK” value ([3]; experiment wp071) was −1.767, the “logFC LCK” value ([3]; experiment wp131) was −1.701 and the logFC ([3]; TNK2 (Q07912-3), experiment wp071, direction down) was −1.728. For the same molecule, the logFC ([3]; TNK2 (Q07912-3), experiment wp081, direction down) was −0.9024, the “logFC ABL1 (P00519-2)” value ([3]; experiment wp071) was −1.417 and the “logFC LCK (P06239-3)” value ([3]; experiment wp071) was −1.767. For the same molecule, the “logFC ABL1 (P00519-2)” value ([3]; experiment wp081) was −1.189, the “logFC ABL2 (P42684-5)” value ([3]; experiment wp131) was −2.8 and the “logFC of ABL2 (P42684-5)” value ([3]; experiment wp131) was −2.8. For the same molecule, the “logFC LCK (P06239-3)” value ([3]; experiment wp131) was −1.701.
